Assay results published in ChEMBL document CHEMBL2074513, “Role of blood-brain barrier P-glycoprotein in limiting brain accumulation and sedative side-effects of asimadoline, a peripherally acting analgaesic drug” (Br J Pharmacol, 1999).

Assays:
[1] = biological target: ATP-dependent translocase ABCB1 (Homo sapiens, UniProt P08183); assay: TP_TRANSPORTER: transepithelial transport (basal to apical) in MDR1-expressing LLC-PK1 cells; type: functional, cell-based; conditions: pig
[2] = biological target: ATP-dependent translocase ABCB1 (Mus musculus, UniProt P21447); assay: TP_TRANSPORTER: transepithelial transport (basal to apical) in mdr1a-expressing LLC-PK1 cell; type: functional, cell-based; conditions: pig
Sequence of ATP-dependent translocase ABCB1 (Mus musculus, UniProt P21447) (P21447 whole entry): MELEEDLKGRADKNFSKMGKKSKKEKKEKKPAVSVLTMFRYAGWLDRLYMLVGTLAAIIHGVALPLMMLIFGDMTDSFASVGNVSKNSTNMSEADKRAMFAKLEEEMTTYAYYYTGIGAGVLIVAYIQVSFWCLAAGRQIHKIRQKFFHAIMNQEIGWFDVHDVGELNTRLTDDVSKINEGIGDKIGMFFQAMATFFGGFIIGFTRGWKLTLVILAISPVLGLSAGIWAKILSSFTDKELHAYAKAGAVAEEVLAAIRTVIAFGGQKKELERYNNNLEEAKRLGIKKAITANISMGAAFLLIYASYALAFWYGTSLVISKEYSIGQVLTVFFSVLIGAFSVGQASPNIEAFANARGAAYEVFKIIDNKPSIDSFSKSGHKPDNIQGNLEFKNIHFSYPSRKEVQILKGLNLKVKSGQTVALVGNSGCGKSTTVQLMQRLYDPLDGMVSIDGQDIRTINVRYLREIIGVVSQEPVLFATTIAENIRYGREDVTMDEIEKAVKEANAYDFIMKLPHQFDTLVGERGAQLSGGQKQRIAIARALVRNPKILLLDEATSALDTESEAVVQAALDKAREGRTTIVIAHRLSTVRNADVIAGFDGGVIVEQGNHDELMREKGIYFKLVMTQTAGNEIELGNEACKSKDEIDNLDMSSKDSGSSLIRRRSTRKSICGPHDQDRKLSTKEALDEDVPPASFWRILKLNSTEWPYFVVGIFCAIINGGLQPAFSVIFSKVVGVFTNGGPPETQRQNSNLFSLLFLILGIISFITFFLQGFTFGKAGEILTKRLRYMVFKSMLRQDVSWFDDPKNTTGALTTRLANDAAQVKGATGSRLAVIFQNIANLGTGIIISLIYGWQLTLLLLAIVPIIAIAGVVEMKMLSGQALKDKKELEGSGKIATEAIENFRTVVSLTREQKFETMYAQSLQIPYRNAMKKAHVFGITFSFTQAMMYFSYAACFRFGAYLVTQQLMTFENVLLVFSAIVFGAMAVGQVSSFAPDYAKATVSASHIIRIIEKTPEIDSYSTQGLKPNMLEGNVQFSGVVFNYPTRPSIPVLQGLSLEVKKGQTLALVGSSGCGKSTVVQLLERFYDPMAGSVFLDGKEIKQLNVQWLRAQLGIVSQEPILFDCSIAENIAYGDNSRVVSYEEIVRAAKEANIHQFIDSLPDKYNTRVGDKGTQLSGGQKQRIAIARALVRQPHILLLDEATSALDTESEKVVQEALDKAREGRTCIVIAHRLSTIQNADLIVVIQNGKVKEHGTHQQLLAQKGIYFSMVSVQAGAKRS

[3] = biological target: P-glycoprotein 1 and 3 (MDR1a/MDR1b) (Mus musculus, UniProt P21447+P06795); assay: TP_TRANSPORTER: increase in brain concentration in mdr1a/1b(-/-) mouse; type: functional, organism-based; conditions: in vivo

Measured: Activity

Sequence of ATP-dependent translocase ABCB1 (Homo sapiens, UniProt P08183) (P08183 whole entry): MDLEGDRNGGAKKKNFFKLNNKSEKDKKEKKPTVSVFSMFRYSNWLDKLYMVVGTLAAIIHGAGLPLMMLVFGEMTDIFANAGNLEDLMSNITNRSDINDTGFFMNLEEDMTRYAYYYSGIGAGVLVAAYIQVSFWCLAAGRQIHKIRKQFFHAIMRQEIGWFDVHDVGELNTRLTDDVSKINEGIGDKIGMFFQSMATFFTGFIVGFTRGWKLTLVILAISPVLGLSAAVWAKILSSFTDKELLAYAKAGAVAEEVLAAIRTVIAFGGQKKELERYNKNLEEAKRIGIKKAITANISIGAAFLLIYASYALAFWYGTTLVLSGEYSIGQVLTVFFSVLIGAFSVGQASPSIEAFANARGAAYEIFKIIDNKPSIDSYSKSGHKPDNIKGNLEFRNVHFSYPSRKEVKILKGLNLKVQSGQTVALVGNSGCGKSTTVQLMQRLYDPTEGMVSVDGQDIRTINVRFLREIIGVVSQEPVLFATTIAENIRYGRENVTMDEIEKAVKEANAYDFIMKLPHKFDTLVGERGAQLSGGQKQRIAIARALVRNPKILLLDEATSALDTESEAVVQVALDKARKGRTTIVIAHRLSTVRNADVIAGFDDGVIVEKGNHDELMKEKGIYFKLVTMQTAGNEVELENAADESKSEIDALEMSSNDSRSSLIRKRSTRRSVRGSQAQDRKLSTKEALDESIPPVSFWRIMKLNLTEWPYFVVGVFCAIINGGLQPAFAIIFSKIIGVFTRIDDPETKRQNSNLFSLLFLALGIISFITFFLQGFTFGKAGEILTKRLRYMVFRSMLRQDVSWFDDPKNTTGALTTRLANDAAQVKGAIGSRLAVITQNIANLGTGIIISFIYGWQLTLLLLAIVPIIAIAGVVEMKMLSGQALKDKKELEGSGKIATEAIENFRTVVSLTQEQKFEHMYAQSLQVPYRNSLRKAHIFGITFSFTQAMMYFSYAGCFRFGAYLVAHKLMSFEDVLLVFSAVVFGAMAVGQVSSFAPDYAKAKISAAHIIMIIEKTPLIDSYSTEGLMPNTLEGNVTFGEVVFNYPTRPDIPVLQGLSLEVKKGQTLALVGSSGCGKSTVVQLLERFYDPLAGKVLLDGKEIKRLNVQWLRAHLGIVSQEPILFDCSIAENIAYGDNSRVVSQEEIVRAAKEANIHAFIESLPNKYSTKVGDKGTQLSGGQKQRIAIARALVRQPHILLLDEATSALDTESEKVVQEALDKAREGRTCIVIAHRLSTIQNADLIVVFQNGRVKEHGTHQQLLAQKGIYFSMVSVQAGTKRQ

CN(C(=O)C(c1ccccc1)c1ccccc1)[C@H](CN1CC[C@H](O)C1)c1ccccc1 [ASIMADOLINE]
substrate [+]: all assays above
